Source: patent US20090018134A1, “Compounds - 945” (AstraZeneca AB, priority 2007, published 2009)

Molecular target: T1, mTOR (Homo sapiens, UniProt P42345)
T1 construct: FLAG; made in house
Assay: In Vitro mTOR Kinase Assay (Echo), Test (a)(ii)
Type: biochemical
Conditions: table of enzyme assay Test (a)(ii); read-out: Test (a)(ii) IC50
Method in brief: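 Compounds were acoustically dispensed, then incubated with FLAG-tagged mTOR (1362-2549) for 2 hours at room temperature. Reactions were quenched with EDTA plus detection antibody and AlphaScreen beads and left overnight in the dark before reading. Loss of phospho-T389 signal gave IC50 values.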

T1 sequence (P42345 1362-2549): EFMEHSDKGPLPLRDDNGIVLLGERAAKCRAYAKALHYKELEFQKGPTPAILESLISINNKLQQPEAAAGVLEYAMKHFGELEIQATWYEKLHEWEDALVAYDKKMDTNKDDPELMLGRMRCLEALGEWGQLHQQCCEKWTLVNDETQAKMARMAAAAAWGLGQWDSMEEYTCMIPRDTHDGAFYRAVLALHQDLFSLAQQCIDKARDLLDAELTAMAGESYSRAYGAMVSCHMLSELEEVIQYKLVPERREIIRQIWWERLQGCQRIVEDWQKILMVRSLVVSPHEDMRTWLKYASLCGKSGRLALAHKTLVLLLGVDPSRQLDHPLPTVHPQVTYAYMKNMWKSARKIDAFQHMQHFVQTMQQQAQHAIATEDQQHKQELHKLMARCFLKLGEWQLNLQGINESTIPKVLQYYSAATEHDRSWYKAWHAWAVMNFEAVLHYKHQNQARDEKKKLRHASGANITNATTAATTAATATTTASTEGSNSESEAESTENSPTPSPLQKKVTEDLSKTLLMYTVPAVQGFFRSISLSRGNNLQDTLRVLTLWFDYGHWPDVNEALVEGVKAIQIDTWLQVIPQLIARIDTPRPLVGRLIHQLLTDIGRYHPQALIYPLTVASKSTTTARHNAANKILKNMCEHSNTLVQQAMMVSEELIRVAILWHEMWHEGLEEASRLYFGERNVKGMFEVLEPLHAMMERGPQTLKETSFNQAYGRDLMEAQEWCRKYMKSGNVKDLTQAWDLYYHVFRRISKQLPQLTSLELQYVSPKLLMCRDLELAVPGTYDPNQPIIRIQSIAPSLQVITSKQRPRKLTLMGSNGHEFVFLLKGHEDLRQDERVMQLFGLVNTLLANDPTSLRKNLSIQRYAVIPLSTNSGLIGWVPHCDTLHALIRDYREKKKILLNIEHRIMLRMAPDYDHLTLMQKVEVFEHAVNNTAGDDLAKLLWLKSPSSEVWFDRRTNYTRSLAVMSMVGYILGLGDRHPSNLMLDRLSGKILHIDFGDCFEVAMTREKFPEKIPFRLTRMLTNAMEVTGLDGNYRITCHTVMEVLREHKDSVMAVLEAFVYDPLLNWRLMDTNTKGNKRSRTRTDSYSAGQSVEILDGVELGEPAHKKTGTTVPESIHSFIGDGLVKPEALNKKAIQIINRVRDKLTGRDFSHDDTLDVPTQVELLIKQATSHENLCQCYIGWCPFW

IC50 [nM]	Compound
9.29	CN(C)C(=O)C1(c2cc(N3CCOCC3)nc(-c3ccc(NC(=O)NC4CC4)cc3)n2)CC1 [Example 33, 1-[2-[4-(Cyclopropylcarbamoylamino)phenyl]-6-morpholin-4-ylpyrimidin-4-yl]-N,N-dimethylcyclopropane-1-carboxamide]
58.4	C[C@H]1COCCN1C(=O)C1(c2cc(N3CCOCC3)nc(-c3ccc(NC(=O)NC4CC4)cc3)n2)CC1 [Example 33a, 3-cyclopropyl-1-[4-[4-[1-[(3S)-3-methylmorpholine-4-carbonyl]cyclopropyl]-6-morpholin-4-ylpyrimidin-2-yl]phenyl]urea]
12	O=C(Nc1ccc(-c2nc(N3CCOCC3)cc(C3(C(=O)NC4CC4)CC3)n2)cc1)NC1CC1 [Example 33b, N-cyclopropyl-1-[2-[4-(cyclopropylcarbamoylamino)phe-nyl]-6-morpholin-4-ylpyrimidin-4-yl]cyclopropane-1-carboxamide]
2.58	CN(C(=O)C1(c2cc(N3CCOCC3)nc(-c3ccc(NC(=O)NC4CC4)cc3)n2)CC1)C1CC1 [Example 33c, N-cyclopropyl-1-[2-[4-(cyclopropylcarbamoylamino)phe-nyl]-6-morpholin-4-ylpyrimidin-4-yl]-N-methylcyclopropane-1-carboxamide]
133	CN1CCN(C(=O)C2(c3cc(N4CCOCC4)nc(-c4ccc(NC(=O)NC5CC5)cc4)n3)CC2)CC1 [Example 33d, 3-cyclopropyl-1-[4-[4-[1-(4-methylpiperazine-1-carbonyl)cyclopropyl]-6-morpholin-4-ylpyrimidin-2-yl]phenyl]urea]
4.05	CN(C)C(=O)C1(c2cc(N3CCOCC3)nc(-c3ccc(NC(=O)NCCO)cc3)n2)CC1 [Example 34, 1-[2-[4-(2-Hydroxyethylcarbamoylamino)phenyl]-6-morpholin-4-ylpyrimidin-4-yl]-N,N-dimethylcyclopropane-1-carboxamide]
38.7	C[C@H]1COCCN1C(=O)C1(c2cc(N3CCOCC3)nc(-c3ccc(NC(=O)NCCO)cc3)n2)CC1 [Example 34a, 3-(2-hydroxyethyl)-1-[4-[4-[1-[(3S)-3-methylmorpholine-4-carbonyl]cyclopropyl]-6-morpholin-4-ylpyrimidin-2-yl]phenyl]urea]
10.9	O=C(NCCO)Nc1ccc(-c2nc(N3CCOCC3)cc(C3(C(=O)NC4CC4)CC3)n2)cc1 [Example 34b, N-cyclopropyl-1-[2-[4-(2-hydroxyethylcarbamoylamino)phe-nyl]-6-morpholin-4-ylpyrimidin-4-yl]cyclopropane-1-carboxamide]
3.45	CN(C(=O)C1(c2cc(N3CCOCC3)nc(-c3ccc(NC(=O)NCCO)cc3)n2)CC1)C1CC1 [Example 34c, N-cyclopropyl-1-[2-[4-(2-hydroxyethylcarbamoylamino)phe-nyl]-6-morpholin-4-ylpyrimidin-4-yl]-N-methylcyclopropane-1-carboxamide]
86.3	CN1CCN(C(=O)C2(c3cc(N4CCOCC4)nc(-c4ccc(NC(=O)NCCO)cc4)n3)CC2)CC1 [Example 34d, 3-(2-hydroxyethyl)-1-[4-[4-[1-(4-methylpiperazine-1-carbonyl)cyclopropyl]-6-morpholin-4-ylpyrimidin-2-yl]phenyl]urea]
5.31	CNC(=S)Nc1ccc(-c2nc(N3CCOC[C@@H]3C)cc(C3(S(C)(=O)=O)CC3)n2)cc1 [Example 35, 3-Methyl-1-[4-[4-[(3S)-3-methylmorpholin-4-yl]-6-(1-methylsulfonylcyclopropyl)pyrimidin-2-yl]phenyl]thiourea]
5.52	CCNC(=S)Nc1ccc(-c2nc(N3CCOC[C@@H]3C)cc(C3(S(C)(=O)=O)CC3)n2)cc1 [Example 35a, 3-ethyl-1-[4-[4-[(3S)-3-methylmorpholin-4-yl]-6-(1-methylsulfonylcyclopropyl)pyrimidin-2-yl]phenyl]thiourea]
0.577	C[C@H]1COCCN1c1cc(C2(S(C)(=O)=O)CC2)nc(-c2ccc(NC(=S)NCCO)cc2)n1 [Example 35b, 3-(2-hydroxyethyl)-1-[4-[4-[(3S)-3-methylmorpholin-4-yl]-6-(1-methylsulfonylcyclopropyl)pyrimidin-2-yl]phenyl]thiourea]
108	C[C@H]1COCCN1c1cc(C2(S(C)(=O)=O)CC2)nc(-c2ccc(NC(=S)NCCN(C)C)cc2)n1 [Example 35c, 3-(2-dimethylaminoethyl)-1-[4-[4-[(3S)-3-methylmorpholin-4-yl]-6-(1-methylsulfonylcyclopropyl)pyrimidin-2-yl]phenyl]thiourea]
4.11	C[C@H]1COCCN1c1cc(C2(S(C)(=O)=O)CC2)nc(-c2ccc(NC(=S)NC3CC3)cc2)n1 [Example 35d, 3-cyclopropyl-1-[4-[4-[(3S)-3-methylmorpholin-4-yl]-6-(1-methylsulfonylcyclopropyl)pyrimidin-2-yl]phenyl]thiourea]
142	C[C@H]1COCCN1c1cc(C2(S(=O)(=O)CCCO)CC2)nc(-c2ccc(NC(=O)NC3(CO)CC3)cc2)n1 [Example 36a, 3-[1-(hydroxymethyl)cyclopro-pyl]-1-[4-[4-[1-(3-hydroxypropylsulfonyl)cyclopropyl]-6-[(3S)-3-methylmorpholin-4-yl]pyrimidin-2-yl]phenyl]urea]
74.9	C[C@H]1COCCN1c1cc(C2(S(=O)(=O)c3ccc(F)cc3)CC2)nc(-c2ccc(NC(=O)NCc3ncc[nH]3)cc2)n1 [Example 36aa, 1-[4-[4-[1-(4-fluorophenyl)sulfonylcyclopropyl]-6-[(3S)-3-methylmorpholin-4-yl]pyrimidin-2-yl]phenyl]-3-(1H-imidazol-2-ylmethyl)urea]
11	C[C@H]1COCCN1c1cc(C2(S(=O)(=O)c3ccccn3)CCCC2)nc(-c2ccc(NC(=O)NC3CC3)cc2)n1 [Example 36ab, 3-cyclopropyl-1-[4-[4-[(3S)-3-methylmorpholin-4-yl]-6-(1-pyridin-2-ylsulfonylcyclopentyl)pyrimidin-2-yl]phenyl]urea]
4.41	C[C@H]1COCCN1c1cc(C2(S(=O)(=O)c3ccccn3)CCCC2)nc(-c2ccc(NC(=O)NCCO)cc2)n1 [Example 36ac, 3-(2-hydroxyethyl)-1-[4-[4-[(3S)-3-methylmorpholin-4-yl]-6-(1-pyridin-2-ylsulfonylcyclopentyl)pyrimidin-2-yl]phenyl]urea]
32.3	C[C@H]1COCCN1c1cc(C2(S(=O)(=O)c3ccccn3)CCCC2)nc(-c2ccc(NC(=O)NCCC#N)cc2)n1 [Example 36ad, 3-(2-cyanoethyl)-1-[4-[4-[(3S)-3-methylmorpholin-4-yl]-6-(1-pyridin-2-ylsulfonylcyclopentyl)pyrimidin-2-yl]phenyl]urea]
15.1	C[C@H]1COCCN1c1cc(C2(S(=O)(=O)c3ccccn3)CCCC2)nc(-c2ccc(NC(=O)NCCCO)cc2)n1 [Example 36ae, 3-(3-hydroxypropyl)-1-[4-[4-[(3S)-3-methylmorpholin-4-yl]-6-(1-pyridin-2-ylsulfonylcyclopentyl)pyrimidin-2-yl]phenyl]urea]
2.75	C[C@H]1COCCN1c1cc(C2(S(=O)(=O)c3ccccn3)CCC2)nc(-c2ccc(NC(=O)NC3CC3)cc2)n1 [Example 36af, 3-cyclopropyl-1-[4-[4-[(3S)-3-methylmorpholin-4-yl]-6-(1-pyridin-2-ylsulfonylcyclobutyl)pyrimidin-2-yl]phenyl]urea]
1.3	CNC(=O)Nc1ccc(-c2nc(N3CCOC[C@@H]3C)cc(C3(S(=O)(=O)c4ccccn4)CCC3)n2)cc1 [Example 36ag, 3-methyl-1-[4-[4-[(3S)-3-methylmorpholin-4-yl]-6-(1-pyridin-2-ylsulfonylcyclobutyl)pyrimidin-2-yl]phenyl]urea]
2.47	C[C@H]1COCCN1c1cc(C2(S(=O)(=O)c3ccccn3)CCC2)nc(-c2ccc(NC(=O)NCCO)cc2)n1 [Example 36ah, 3-(2-hydroxyethyl)-1-[4-[4-[(3S)-3-methylmorpholin-4-yl]-6-(1-pyridin-2-ylsulfonylcyclobutyl)pyrimidin-2-yl]phenyl]urea]
5.61	C[C@H]1COCCN1c1cc(C2(S(=O)(=O)c3ccccn3)CCC2)nc(-c2ccc(NC(=O)NCCC#N)cc2)n1 [Example 36ai, 3-(2-cyanoethyl)-1-[4-[4-[(3S)-3-methylmorpholin-4-yl]-6-(1-pyridin-2-ylsulfonylcyclobutyl)pyrimidin-2-yl)phenyl]urea]
2.45	C[C@H]1COCCN1c1cc(C2(S(=O)(=O)c3ccccn3)CCC2)nc(-c2ccc(NC(=O)NCc3ncc[nH]3)cc2)n1 [Example 36ak, 3-(1H-imidazol-2-ylmethyl)-1-[4-[4-[(3S)-3-methylmorpholin-4-yl]-6-(1-pyridin-2-ylsulfonylcyclobutyl)pyrimidin-2-yl]phenyl]urea]
10.4	O=C(Nc1ccc(-c2nc(N3CCOCC3)cc(C3(S(=O)(=O)c4ccc(F)cc4)CC3)n2)cc1)Nc1ncns1 [Example 36an, 1-[4-[4-[1-(4-fluorophenyl)sulfonylcyclopropyl]-6-morpholin-4-ylpyrimidin-2-yl]phenyl]-3-(1,2,4-thiadiazol-5-yl)urea]
14	CCNC(=O)Nc1ccc(-c2nc(N3CCOCC3)cc(C3(S(=O)(=O)c4ccc(F)cc4)CC3)n2)cc1 [Example 36ao, 1-ethyl-3-[4-[4-[1-(4-fluorophenyl)sulfonylcyclopropyl]-6-morpholin-4-ylpyrimidin-2-yl]phenyl]urea]
15.6	CNC(=O)Nc1ccc(-c2nc(N3CCOCC3)cc(C3(S(=O)(=O)c4ccc(F)cc4)CC3)n2)cc1 [Example 36ap, 3-[4-[4-[1-(4-fluorophenyl)sulfonylcyclopropyl]-6-morpholin-4-ylpyrimidin-2-yl]phenyl]-1-methylurea]
15.7	Cn1cc(NC(=O)Nc2ccc(-c3nc(N4CCOCC4)cc(C4(S(=O)(=O)c5ccc(F)cc5)CC4)n3)cc2)cn1 [Example 36aq, 3-[4-[4-[1-(4-fluorophenyl)sulfonylcyclopropyl]-6-morpholin-4-ylpyrimidin-2-yl]phenyl]-1-(1-methylpyrazol-4-yl)urea]
